Measurements reported in article PMC10885115, “Susceptibility of Tetranychus urticae to the Alkaloidal Extract of Zanthoxylum schreberi Bark: Phenotypic and Biochemical Insights for Biotechnological Exploitation” (BioTech, 2024).
pIC50: −log10 of the molar value. “And” between values parts separate entries of the source, which are not always exact repeats. Identical values can stand only once. Like-named read-outs stand apart in the source and are kept apart here.

Columns and labels:
[1] = molecular target: glutathione S-transferase (GST); experiment: GST inhibition in T. urticae protein homogenate; assay type: biochemical, Tetranychus urticae; details: pure compounds, read-out: GST IC50 (95% interval confidence)
Method: (§1) The protein homogenate from T. urticae adult females (n = 50) was prepared by homogenizing them in 500 μL of 0.1 M phosphate buffer (pH 7.2) in an ice bath. After homogenization, the mixture was centrifuged at 12,000× g for 20 min at 4 °C. Both untreated mites and those treated with 0.5% Z. schreberi bark extract were processed similarly. The protein content within the homogenate was quantified using the linearized Bradford micromethod, employing bovine serum albumin as an external standard. A calibration curve was established based on the ratio of absorbance measurements at 590 nm and 450 nm, ensuring linearity with varying protein concentrations. The resulting supernatant was subsequently stored at −20 °C for further enzyme analysis.
GST activity was assessed using 1-chloro-2, 4-dinitrobenzene (CDNB) as the substrate, following a previous procedure. Briefly, the reaction was initiated by mixing CDNB (50 mM in ethanol, 50 µL) and reduced glutathione (50 mM in 0.1 M phosphate-buffered saline (PBS), pH 6.5, 150 µL) in a 5 mL vial with phosphate buffer (0.1 M, pH 6.5 containing 1 mM EDTA, 2.78 mL). Subsequently, 20 µL of protein homogenate was added, and the solution was thoroughly mixed. An aliquot (200 µL) from the resulting mixture was dispensed into a microtiter plate well for measurement, with the procedure performed in triplicate for both biological and technical replicates. The absorbance of each reaction mixture at 340 nm was then recorded using kinetics on a Varioskan LUX 96-well plate reader (Thermo Fisher Scientific, Waltham, MA, USA) after a 10 min duration. The specific GST activity was calculated using the kinetic slope to convert μmoles of product per minute (9.6 mM^−1cm^−1 and 0.3 cm), thereby determining the specific enzyme activity expressed as μmol of substrate/min/mg protein.
(§2) Further investigation involved determining the inhibition of the test enzymes (i.e., AChE, GST, esterase, and PMO). […] The final absorbance measurements of each treatment (At) and control (Ac) were related to the calculated enzyme inhibition percentage using Equation (3). (3) Enzyme Inhibition (%)=[…]
(§3) This determination was performed for each treatment concentration (extract and purified compound) to establish dose–response curves. The IC50 (half-maximal inhibitory concentration in μg/mL for extract and μM for pure compounds) was calculated via nonlinear regression analysis using GraphPad 7.0 (GraphPad Software LLC, Boston, MA, USA).

[2] = molecular target: general esterases; experiment: General esterase inhibition in T. urticae protein homogenate; assay type: biochemical, Tetranychus urticae; details: pure compounds, read-out: Est IC50 (95% interval confidence)
Method: as §1
Enzyme activity of general esterases was assessed using p-nitrophenylacetate as substrate, following a previous procedure. In brief, the protein homogenate (10 µL) was mixed in a microtiter plate well with 1 mM p-nitrophenyl acetate (200 µL) in 50 mM phosphate buffer pH 7.4. The absorbance was measured at 405 nm after a 10 min incubation period using a Varioskan LUX 96-well plate reader (Thermo Fisher Scientific, Waltham, MA, USA). The specific esterase activity was calculated using the kinetic slope to convert μmoles of product per minute (6.53 mM^−1cm^−1 and 0.3 cm), thereby determining the specific enzyme activity expressed as μmol of substrate/min/mg protein.
as §2, §3

[3] = system: P450 monooxygenase (PMO); experiment: PMO inhibition in T. urticae protein homogenate; assay type: biochemical, Tetranychus urticae; details: pure compounds, read-out: PMO IC50 (95% interval confidence)
Method: as §1
The PMO activity was measured by reducing hydrogen peroxide to oxidize 3,3′,5,5′-tetramethylbenzidine (TMBZ), following a previous procedure. Briefly, the protein homogenate (20 µL) was mixed in a microtiter plate well with 6 mM TMBZ (200 µL) working solution (TMBZ (0.01 g) in methanol (5 mL) and 0.25 M sodium acetate (pH 5.0, 15 mL)) and 3% H2O2 (25 µL) for 30 min at 25 °C. After this incubation period, the absorbance was read at 630 nm on a Varioskan LUX 96-well plate reader (Thermo Fisher Scientific, Waltham, MA, USA). The standard curve of heme peroxidase activity was prepared using Cytochrome C from equine heart (Merck, Milwakee, WI, USA). Total Cytochrome P450 monoxygenase was expressed as µmoles of Cytochrome P450 equivalent units (CPEU)/min/mg protein.
as §2, §3

[4] = molecular target: acetylcholinesterase (AChE) and butyrylcholinesterase (BuChE) from various sources; set-up: method as in PMID 37073143; details: most potent of 34 isoquinoline alkaloids; cited from earlier work
[5] = molecular target: T1, acetylcholinesterase (AChE) (Tetranychus urticae, UniProt D8V7J9); assay type: biochemical; details: pure compounds; T. urticae protein homogenate; read-out: AChE IC50 (95% interval confidence)
T1 sequence (D8V7J9 74-665): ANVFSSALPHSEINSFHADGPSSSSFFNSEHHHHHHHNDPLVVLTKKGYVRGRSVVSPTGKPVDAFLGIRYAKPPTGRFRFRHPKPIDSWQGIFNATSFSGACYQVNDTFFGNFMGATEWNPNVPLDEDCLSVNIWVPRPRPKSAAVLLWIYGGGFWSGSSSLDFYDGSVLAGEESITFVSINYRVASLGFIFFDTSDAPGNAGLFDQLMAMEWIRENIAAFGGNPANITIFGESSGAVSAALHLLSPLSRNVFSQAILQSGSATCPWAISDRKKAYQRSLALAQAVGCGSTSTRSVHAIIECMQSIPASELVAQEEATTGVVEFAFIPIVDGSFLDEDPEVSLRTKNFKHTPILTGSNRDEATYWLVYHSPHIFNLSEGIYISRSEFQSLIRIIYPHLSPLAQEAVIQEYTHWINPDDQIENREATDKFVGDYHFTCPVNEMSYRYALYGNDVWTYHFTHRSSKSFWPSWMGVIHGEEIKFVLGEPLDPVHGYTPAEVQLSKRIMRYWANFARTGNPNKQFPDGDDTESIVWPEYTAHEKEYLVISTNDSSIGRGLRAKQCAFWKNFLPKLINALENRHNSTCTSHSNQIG
Method: The protein homogenate from T. urticae adult females (n = 50) was prepared by homogenizing them in 500 μL of 0.1 M phosphate buffer (pH 7.2) in an ice bath. After homogenization, the mixture was centrifuged at 12,000× g for 20 min at 4 °C. […] The protein content within the homogenate was quantified using the linearized Bradford micromethod [40], employing bovine serum albumin as an external standard. A calibration curve was established based on the ratio of absorbance measurements at 590 nm and 450 nm, ensuring linearity with varying protein concentrations [40]. The resulting supernatant was subsequently stored at −20 °C for further enzyme analysis.
The Ellman method was employed to assess AChE activity in both untreated and Z. schreberi-treated mites, following a previous procedure [41]. […]
Further investigation involved determining the inhibition of the test enzymes (i.e., AChE, GST, esterase, and PMO). […] The final absorbance measurements of each treatment (At) and control (Ac) were related to the calculated enzyme inhibition percentage using Equation (3). […]

[6] = system: T. urticae adult females (exposed mite population); experiment: Fecundity (oviposition) test for extract combined with commercial acaricides; assay type: in vivo, Tetranychus urticae; details: 0.06% chlorfenapyr, 0.075% cyflumetofen, 0.05% abamectin, 0.5% extract and combinations M2 to M4; surviving females after 72 h exposure
Method: (§4) Using the same methodology described in the previous section, the following treatments were evaluated in this test: absolute control (application of distilled water), relative control (10% ethanol), positive control A (clorfenapyr at 0.06%), positive control B (cyflumetofen at 0.075%), positive control C (abamectin at 0.05%), treatment 1 (0.5% extract), treatment 2 (0.5% extract + 0.06% clorfenapyr), treatment 3 (0.5% extract + 0.075% cyflumetofen), and treatment 4 (0.5% extract + 0.05% abamectin). Mortality assessments were conducted at 24, 48, and 72 h post-treatment application and adjusted using the Schneider–Orelli formula (Equation (1)). Fecundity was also measured by isolating five surviving females per treatment (after 72 h of exposure to treatments) in petri dishes. The number of eggs oviposited by each female was counted every 24 h over 5 days. Simultaneously with the susceptibility test, the repellent effect of the extract was measured by counting the number of surviving females placed outside the leaves after 24, 48, and 72 h. All laboratory tests were conducted under controlled conditions at 25 ± 2 °C, 60 ± 5% relative humidity, and a 12:12 (light/dark) photoperiod.

[7] = system: T. cinnabarinus Boisdu-Val; set-up: method as in PMID 24861930; details: resistant strain; cited from earlier work
[8] = system: T. urticae; details: cited from earlier work
[9] = system: T. urticae adult females (exposed mite population); experiment: Mortality test for extract combined with commercial acaricides (exposed mites); assay type: in vivo, Tetranychus urticae
Method: as §4

[10] = system: T. urticae adult females (exposed mite population); experiment: Repellency test for Z. schreberi bark extract using exposed mites; assay type: in vivo, Tetranychus urticae; details: 0.06% chlorfenapyr
[11] = system: T. urticae adult females (exposed mite population); experiment: Mortality test for Z. schreberi bark extract using exposed mites (leaf-immersion); assay type: in vivo, Tetranychus urticae; details: 0.06% chlorfenapyr (PC, commercially recommended dose)
Excerpt: The experimental setup involved a transparent cylindrical container with a 3.5 cm diameter filter paper disk placed at the bottom, moistened with distilled water. Bean leaf disks, previously immersed in the respective extract solution and air-dried, were then positioned on the paper disk. The container lid underwent modification, featuring a centrally located circular opening. A metal mesh, perforated with small holes, was affixed using silicone around this opening to facilitate ventilation and prevent mites from escaping. Concentrations ranging from 2, 1, 0.5, and 0.25, to 0.125% of the Z. schreberi bark alkaloidal extract were evaluated diluted in 10% ethanol. These concentrations were selected since they comprise typical doses for botanical pesticides, and, consequently, they were standardized in previous studies in our laboratory to assess botanical extracts. Additionally, three control treatments were employed: an absolute control (application of distilled water), a relative control (10% ethanol), and a positive control (clorfenapyr at 0.06%). Mortality assessments were conducted at 24, 48, and 72 h post-treatment application. The obtained mortality data were adjusted using Schneider–Orelli’s formula (Equation (1)). […]

[12] = system: T. urticae females from the unexposed rearing system; experiment: Preliminary mortality test with unexposed mites; assay type: in vivo, Tetranychus urticae; details: 0.4% chlorfenapyr (positive control), airbrush application
Method: A preliminary trial was conducted to determine the effect of Z. schreberi alkaloidal extract on mites for subsequent experiments, following the methodology outlined by Numa et al. (2015), with certain modifications. Briefly, the bioassay comprised a bean leaf with its underside facing upward, which was placed in a petri dish and its edges lined with cotton moistened using distilled water. Ten T. urticae females from the unexposed rearing system were situated on each leaf. The bioassay on females was driven by their pivotal role in population dynamics, as they are the primary contributors to new individuals. The net reproductive rate per generation (Ro) or population replacement rate is directly dependent on female reproductive capabilities. Consequently, any lethal or sublethal effects observed in females and oviposition will directly influence population growth. This approach led us to assess the potential of the extracts as a promising strategy for pest control, considering their impact on the crucial factor of population expansion. Subsequently, each dish was sealed with plastic wrap post-application of treatments. The evaluated treatments comprised an absolute control (mites without any application), a positive control (chlorfenapyr at 0.4%), and the alkaloidal extract of Z. schreberi at 2%. […] Deceased mites were counted 24 h post-application.

| Molecule | pIC50 [1] | pIC50 [2] | pIC50 [3] | Average fecundity per female over 5 days compared to controls AC and RC [6] | also measured |
| --- | --- | --- | --- | --- | --- |
| COc1ccc2cc3[n+](cc2c1O)CCc1cc2c(cc1-3)OCO2 [Compound 3, berberrubine] | 5.25 | < 3.52 | 4.20 |  |  |
| COc1ccc2cc3[n+](cc2c1OC)CCc1cc2c(cc1-3)OCO2 [Compound 6, berberine] | 5.91 | < 3.52 | 3.41 |  | IC50 [4]: 0.72 µg/mL |
| COc1c(O)ccc2cnc3c4cc5c(cc4ccc3c12)OCO5 [Compound 9, zanthoxyline] | 4.67 | 3.54 | 5.08 |  |  |
| fagaridine [Compound 5] | 3.95 | < 3.52 | 4.68 |  | pIC50 [5]: 4.84 |
| abamectin |  |  |  | statistically significant reduction |  |
| COCCOC(=O)C(C#N)(C(=O)c1ccccc1C(F)(F)F)c1ccc(C(C)(C)C)cc1 (stereo not shown) [cyflumetofen] |  |  |  | statistically significant reduction | LD50 [7]: 0.0016%; LD50 ([8]; susceptible strain of T. urticae): 0.00011%; Corrected average mortality after 72 h ([9]; 0.075% cyflumetofen alone (PCB)): 32.5% |
| COc1ccc2c(c[n+](C)c3c4cc5c(cc4ccc23)OCO5)c1OC [Compound 4, chelerythrine] | 4.93 | < 3.52 | 4.05 |  |  |
| CCOCn1c(-c2ccc(Cl)cc2)c(C#N)c(Br)c1C(F)(F)F [chlorfenapyr] |  |  |  | statistically significant reduction | Repellency after 72 h [10]: lowest repellency; LD50 ([8]; two resistant strains of T. urticae, listed as clorfenapyr): 0.08% and 0.29%; Corrected average mortality after 72 h ([9]; 0.06% chlorfenapyr alone (PCA)): 20.9%; Corrected average mortality after 72 h [11]: 24.6%; Corrected mortality after 24 h [12]: 93.3% |
